Reference: publication PMC6093232, “PROMIS, global analysis of PROtein–metabolite interactions using size separation in Arabidopsis thaliana” (The Journal of Biological Chemistry, 2018)
Where two headings read alike, the source gives them in different places. Where a SMILES comes first, the peptide text is derived from it.

Tests used:
GAPCP1 [1] = biological target: T1, GAPCP1 (Arabidopsis thaliana, UniProt Q9SAJ6); experiment: biochemical; design: nanoDSF thermal shift, intrinsic fluorescence ratio 350/330 nm, Prometheus NT.48; settings: 1x PBS
T1 construct: N-terminal His6 (pDEST17), cloned from Arabidopsis cDNA, expressed in E. coli, SEC purified
Description: (§1) Protein thermal stability measurements GAPC1/2, GAPCP1, and GAPCP2 proteins were obtained as described above, and the human GAPDH recombinant protein was obtained from a commercial supplier (Sigma) and stored in 10 mM Tris buffer (pH 7.5, 0.5 M NaCl). Tyr–Asp (25 μM), 3PGA (250 μM), and other dipeptides (25 μM) were prepared in 1× PBS buffer for the measurements using GAPC1/2 protein. For GAPCP1 Tyr–Asp (25 μM), 3PGA (250 μM) and other dipeptides (25 μM) were prepared in 1× PBS buffer, whereas for GAPCP2 Tyr–Asp (50 μM), 3PGA (250 μM) and other dipeptides (50 μM) were prepared in 1× PBS buffer. In addition, for the human GAPDH Tyr–Asp (500 μM), 3PGA (500 μM) and other dipeptides (500 μM) were prepared in Tris buffer (10 mM Tris-HCl, pH 7.5, 0.5 M NaCl). In accordance, GAPDH (1 μM) and GAPCs (0.2–0.25 mg/ml) were diluted using Tris or PBS buffer, respectively. Capillaries were loaded into the Prometheus NT.48 (Nanotemper). Unfolding was detected during heating in a linear thermal ramp (2 °C min^−1, 20–90 °C) with an excitation power of 60–100%. Temperature-dependent protein unfolding was determined from changes in tryptophan and tyrosine fluorescence at emission wavelengths of 350 and 330 nm. Melting temperatures were determined by detecting the maximum of the first derivative of the fluorescence ratios (F350 nm/F330 nm) as described previously ([43]). To validate the binding, we first tested a commercially available human homolog of GAPC1, GAPDH. Subsequently, plant GAPC1/2, GAPCP1, and GAPCP2 were overexpressed and purified from E. coli. Binding was probed using nano-DSF technology from Nanotemper (Prometheus NT.48; see under “Experimental procedures”). Prometheus NT.48 traces protein thermal stability by recording changes in the tryptophan residues during protein unfolding in an increasing temperature gradient. The melting temperature (Tm) of GAPDH was calculated as 60 °C, GAPC1/2 to 54 °C, GAPCP1 to 55 °C, and GAPCP2 to 55 °C (Fig. 7, C–F; Tables S5 and S6). […] Analogous results were obtained for Tyr–Asp. More specifically, 500 μM Tyr–Asp stabilized GAPDH by ∼1.1 °C, whereas 25–50 μM Tyr–Asp destabilized GAPC1/2, GAPCP1, and GAPCP2 by ∼1, 2, and 1.5 °C, respectively (Fig. 7, C–F; Tables S5 and S6). The obtained results validate the interaction between Tyr–Asp and plant glyceraldehyde-3-P dehydrogenases. The interaction is conserved in the human enzyme.

GAPDH [2] = biological target: T2, GAPDH (Homo sapiens, UniProt P04406); experiment: biochemical; design: nanoDSF thermal shift, intrinsic fluorescence ratio 350/330 nm, Prometheus NT.48; settings: 10 mM Tris pH 7.5, 0.5 M NaCl
T2 construct: commercial human recombinant protein (Sigma)
Description: as §1

GAPCP2 [3] = biological target: T3, GAPCP2 (Arabidopsis thaliana, UniProt Q5E924); experiment: biochemical; design: nanoDSF thermal shift, intrinsic fluorescence ratio 350/330 nm, Prometheus NT.48; settings: 1x PBS
T3 construct: N-terminal His6 (pDEST17), cloned from Arabidopsis cDNA, expressed in E. coli, SEC purified
Description: as §1

GAPDH [4] = biological target: T2, GAPDH; experiment: nanoDSF thermal shift; assay type: binding; settings: 500 μM ligand; 1 μM protein; 10 mM Tris-HCl pH 7.5, 0.5 M NaCl
KPHMT1 = biological target: T4, KPHMT1 (Arabidopsis thaliana, UniProt O82357); experiment: microscale thermophoresis; assay type: binding
T4 construct: N-terminal 144 bp of CDS (mitochondrial signal peptide, 48 residues) deleted; N-terminal His6 (pET300), E. coli BL21 Star (DE3); purified per Results, bacterial lysate used directly per Methods; RED-Tris-NTA labelled
T4 sequence (O82357 49-347): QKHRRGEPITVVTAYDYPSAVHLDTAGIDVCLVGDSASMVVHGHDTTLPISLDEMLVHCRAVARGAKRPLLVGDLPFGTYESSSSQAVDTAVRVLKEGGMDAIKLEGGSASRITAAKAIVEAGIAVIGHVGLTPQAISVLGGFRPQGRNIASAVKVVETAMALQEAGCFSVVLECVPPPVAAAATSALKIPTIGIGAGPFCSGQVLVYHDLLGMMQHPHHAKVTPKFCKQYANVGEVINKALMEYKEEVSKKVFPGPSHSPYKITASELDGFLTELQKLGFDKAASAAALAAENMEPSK

MTI = biological target: T5, MTI (Arabidopsis thaliana, UniProt Q9ZUG4); experiment: microscale thermophoresis; assay type: binding
T5 construct: gene At2g05830; N-terminal His6 (pET300), E. coli BL21 Star (DE3), Ni-NTA purified; RED-Tris-NTA labelled
T5 sequence (Q9ZUG4 1-374): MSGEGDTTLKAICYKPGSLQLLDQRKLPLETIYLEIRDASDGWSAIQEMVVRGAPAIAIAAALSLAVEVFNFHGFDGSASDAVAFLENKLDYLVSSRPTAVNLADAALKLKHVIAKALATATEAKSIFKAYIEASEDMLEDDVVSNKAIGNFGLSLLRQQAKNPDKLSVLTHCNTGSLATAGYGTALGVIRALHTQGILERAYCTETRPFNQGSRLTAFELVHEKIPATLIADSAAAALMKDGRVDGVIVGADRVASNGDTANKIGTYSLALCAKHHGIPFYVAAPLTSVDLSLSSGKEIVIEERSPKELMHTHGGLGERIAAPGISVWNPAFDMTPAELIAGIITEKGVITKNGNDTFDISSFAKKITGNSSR

GAPCP1 [5] = biological target: T1, GAPCP1; experiment: nanoDSF thermal shift; assay type: binding; settings: 25 μM ligand; 0.2-0.25 mg/ml protein; PBS
GAPCP1 [6] = biological target: T1, GAPCP1; experiment: biochemical; design: nanoDSF thermal shift; Tm from ratio of tryptophan fluorescence at 350 and 330 nm
Description: (§2) GAPC1/2, GAPCP1, and GAPCP2 proteins were obtained as described above, and the human GAPDH recombinant protein was obtained from a commercial supplier (Sigma) and stored in 10 mM Tris buffer (pH 7.5, 0.5 M NaCl). Tyr–Asp (25 μM), 3PGA (250 μM), and other dipeptides (25 μM) were prepared in 1× PBS buffer for the measurements using GAPC1/2 protein. For GAPCP1 Tyr–Asp (25 μM), 3PGA (250 μM) and other dipeptides (25 μM) were prepared in 1× PBS buffer, whereas for GAPCP2 Tyr–Asp (50 μM), 3PGA (250 μM) and other dipeptides (50 μM) were prepared in 1× PBS buffer. In addition, for the human GAPDH Tyr–Asp (500 μM), 3PGA (500 μM) and other dipeptides (500 μM) were prepared in Tris buffer (10 mM Tris-HCl, pH 7.5, 0.5 M NaCl). […] Unfolding was detected during heating in a linear thermal ramp (2 °C min^−1, 20–90 °C) with an excitation power of 60–100%. Temperature-dependent protein unfolding was determined from changes in tryptophan and tyrosine fluorescence at emission wavelengths of 350 and 330 nm. Melting temperatures were determined by detecting the maximum of the first derivative of the fluorescence ratios (F350 nm/F330 nm) as described previously ([43]). […] The melting temperature (Tm) of GAPDH was calculated as 60 °C, GAPC1/2 to 54 °C, GAPCP1 to 55 °C, and GAPCP2 to 55 °C (Fig. 7, C–F; Tables S5 and S6). […]

GAPCP2 [7] = biological target: T3, GAPCP2; experiment: biochemical; design: nanoDSF thermal shift; Tm from ratio of tryptophan fluorescence at 350 and 330 nm
Description: as §2

GAPCP2 [8] = biological target: T3, GAPCP2; experiment: nanoDSF thermal shift; assay type: binding; settings: 50 μM ligand; 0.2-0.25 mg/ml protein; PBS

T3 sequence (Q5E924 67-420): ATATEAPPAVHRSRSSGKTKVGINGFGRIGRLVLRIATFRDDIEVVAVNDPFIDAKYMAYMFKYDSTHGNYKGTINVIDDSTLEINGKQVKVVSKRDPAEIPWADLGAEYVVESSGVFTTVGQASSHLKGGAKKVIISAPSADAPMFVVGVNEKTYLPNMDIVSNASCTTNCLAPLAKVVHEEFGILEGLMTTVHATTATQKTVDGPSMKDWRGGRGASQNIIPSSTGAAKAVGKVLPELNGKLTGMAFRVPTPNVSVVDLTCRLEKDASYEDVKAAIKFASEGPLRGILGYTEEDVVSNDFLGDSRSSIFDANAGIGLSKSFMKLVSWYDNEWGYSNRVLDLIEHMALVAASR
T2 sequence (P04406 2-335): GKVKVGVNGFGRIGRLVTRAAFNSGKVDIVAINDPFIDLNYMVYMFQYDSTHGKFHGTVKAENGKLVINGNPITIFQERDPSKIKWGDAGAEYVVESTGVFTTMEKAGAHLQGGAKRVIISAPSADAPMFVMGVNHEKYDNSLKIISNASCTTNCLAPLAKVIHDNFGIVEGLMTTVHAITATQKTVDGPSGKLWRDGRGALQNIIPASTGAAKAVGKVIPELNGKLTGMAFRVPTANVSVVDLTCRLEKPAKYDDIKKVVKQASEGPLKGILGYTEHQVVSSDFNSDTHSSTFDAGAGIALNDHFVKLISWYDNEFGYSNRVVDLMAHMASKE
T1 sequence (Q9SAJ6 whole entry): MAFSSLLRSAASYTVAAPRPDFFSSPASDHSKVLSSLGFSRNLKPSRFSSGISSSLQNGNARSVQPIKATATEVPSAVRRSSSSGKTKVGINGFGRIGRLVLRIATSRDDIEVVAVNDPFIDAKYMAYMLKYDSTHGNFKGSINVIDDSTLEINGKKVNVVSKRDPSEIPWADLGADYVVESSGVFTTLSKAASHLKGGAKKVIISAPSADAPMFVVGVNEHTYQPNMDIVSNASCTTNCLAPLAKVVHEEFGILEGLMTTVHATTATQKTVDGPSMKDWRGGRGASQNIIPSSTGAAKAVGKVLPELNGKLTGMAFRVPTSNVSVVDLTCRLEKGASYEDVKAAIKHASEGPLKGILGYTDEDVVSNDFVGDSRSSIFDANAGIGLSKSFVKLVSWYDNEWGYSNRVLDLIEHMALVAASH

ΔTm at 25 µM (GAPCP1 [1]) [°C]	ΔTm at 500 µM (GAPDH [2]) [°C]	ΔTm at 50 µM (GAPCP2 [3]) [°C]	Compound	further results
-0.02	-1.2	0.22	N[C@@H](Cc1c[nH]cn1)C(=O)N[C@@H](Cc1ccc(O)cc1)C(=O)O [His–Tyr] (H-His-Tyr-OH)	dTm (GAPDH [4]): Tm of the human GAPDH was affected by the presence of two other Tyr-containing dipeptides
0.15	2.2	1.67	CC(C)C[C@H](NC(=O)[C@@H](N)Cc1ccc(O)cc1)C(=O)O [TyrLeu] (H-Tyr-Leu-OH)	
			CC(C)(CO)[C@@H](O)C(=O)NCCC(=O)O [pantothenate]	Kd (KPHMT1): 500 µM
-0.01	0.2	0.66	CSCC[C@H](NC(=O)[C@@H](N)[C@@H](C)O)C(=O)O [ThrMet] (H-Thr-Met-OH)	
-0.1	0.1	-0.12	O=C(O)CC[C@H](NC(=O)[C@@H]1CCCN1)C(=O)O [ProGlu] (H-Pro-Glu-OH)	
-0.11	0.1	0.55	NCC(=O)N1CCC[C@H]1C(=O)O [GlyPro] (H-Gly-Pro-OH)	
			CSC[C@H]1O[C@@H](n2cnc3c(N)ncnc32)[C@H](O)[C@@H]1O [MTA]	Kd (MTI): 4 µM
-0.33	0.2	0.2	CC(C)C[C@H](N)C(=O)N[C@@H](Cc1ccccc1)C(=O)O [LeuPhe] (H-Leu-Phe-OH)	
			N[C@@H](Cc1ccc(O)cc1)C(=O)N[C@@H](CC(=O)O)C(=O)O [Tyr–Asp] (H-Tyr-Asp-OH)	ΔTm at 25 µM (GAPCP1 [1]; experiment 1): -1.56 °C; ΔTm at 25 µM (GAPCP1 [1]; experiment 2): -2.09 °C; ΔTm at 25 µM (GAPCP1 [1]; experiment 3): -2.2 °C; ΔTm at 25 µM (GAPCP1 [1]; experiment 4): -2.06 °C; ΔTm at 500 µM (GAPDH [2]; experiment 1): 2.2 °C; ΔTm at 500 µM (GAPDH [2]; experiment 2): 1.31 °C; ΔTm at 500 µM (GAPDH [2]; experiment 4): 1.06 °C; ΔTm at 50 µM (GAPCP2 [3]; experiment 1): -1.6 °C; ΔTm at 50 µM (GAPCP2 [3]; experiment 2): -1.58 °C; ΔTm at 50 µM (GAPCP2 [3]; experiment 3): -1.55 °C; ΔTm at 50 µM (GAPCP2 [3]; experiment 4): -1.23 °C; dTm (destabilized) (GAPCP1 [5]): ~ 2 °C; ΔTm at 25 µM (GAPCP1 [6]): -2.06 °C; ΔTm at 50 µM (GAPCP2 [7]): -1.23 °C; dTm (destabilized) (GAPCP2 [8]): ~ 1.5 °C
